According to paper PMC6318021 (Structure (London, England : 1993), 2018):

Target: Nurr1 (nuclear receptor related 1 protein) (Homo sapiens, UniProt P43354)
Experiment: tryptophan fluorescence quenching
Type: binding

Nurr1 (nuclear receptor related 1 protein), sequence (P43354 352-598): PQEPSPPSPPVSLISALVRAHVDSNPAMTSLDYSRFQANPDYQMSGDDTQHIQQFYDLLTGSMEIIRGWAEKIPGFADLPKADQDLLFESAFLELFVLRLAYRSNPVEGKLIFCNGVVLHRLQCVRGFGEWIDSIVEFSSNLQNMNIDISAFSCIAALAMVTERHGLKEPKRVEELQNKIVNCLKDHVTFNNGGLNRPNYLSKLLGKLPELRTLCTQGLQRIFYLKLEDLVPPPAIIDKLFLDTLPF

SMILES	Kd [µM]
CCCCCCCC/C=C\CCCCCCCC(=O)O [OA, oleic acid]	59 ± 15
CCCCC/C=C\C/C=C\CCCCCCCC(=O)O [LA, linoleic acid]	101 ± 13
